Test results from ChEMBL document CHEMBL4651402, “Screening of ~5500 FDA-approved drugs and clinical candidates for anti-SARS-CoV-2 activity” (2021).

System: SARS-CoV-2
Experiment: microbe, parasite or virus in culture
Conditions: Severe acute respiratory syndrome coronavirus 2, Vero C1008, 48 h

| Structure (SMILES) | IC50 | IC50 (read-out: pIC50 (converted)) |
| --- | --- | --- |
| CC1(COc2ccc3c(c2)ncn3-c2ccc3cccc(N4CCC(N)CC4)c3n2)COC1 [CRENOLANIB] | > 20 µM | > 20 µM |
| C[C@@H](Oc1cc(-c2cnn(C3CCNCC3)c2)cnc1N)c1c(Cl)ccc(F)c1Cl [CRIZOTINIB] | > 20 µM | > 20 µM |
| O=C(O)c1cc(=O)c2c(OCC(O)COc3cccc4oc(C(=O)O)cc(=O)c34)cccc2o1 [CROMOLYN] | > 20 µM | > 20 µM |
| CC(C)c1cnn2c(NCc3ccccc3)cc(NC[C@H]3CCNC[C@@H]3O)nc12 [CT-7001] | > 20 µM | > 20 µM |
| CN(C)c1cc2c(cc1Sc1nc3c(N)nccc3n1CCNCC(C)(C)C)OCO2 [CUDC-305] | > 20 µM | > 20 µM |
| O=C(c1ccc2nccnc2c1)N1CCCCC1 [CX516] | > 20 µM | > 20 µM |
| O=C(c1ccc2nonc2c1)N1CCOCC1 [CX-717] | > 20 µM | > 20 µM |
| N#CCC(=O)NN [CYACETACIDE] | > 20 µM | > 20 µM |
| Oc1cc(O)c2cc(O)c(-c3ccc(O)c(O)c3)[o+]c2c1 [CYANIDIN] | > 20 µM | > 20 µM |
| CC1(C)S[C@@H]2[C@H](NC(=O)C3(N)CCCCC3)C(=O)N2[C@H]1C(=O)O [CYCLACILLIN] | > 20 µM | > 20 µM |
| O=S(=O)(O)NC1CCCCC1 [CYCLAMIC ACID] | > 20 µM | > 20 µM |
| CC1CC(OC(=O)C(O)c2ccccc2)CC(C)(C)C1 (stereo unspecified) [CYCLANDELATE] | > 20 µM | > 20 µM |
| CN(C)C1CCc2[nH]c3ccccc3c2C1 (stereo unspecified) [CYCLINDOLE] | > 20 µM | > 20 µM |
| CN1CCN(C(c2ccccc2)c2ccccc2)CC1 [CYCLIZINE] | > 20 µM | > 20 µM |
| COC(=O)Nc1nc2ccc(C(=O)C3CC3)cc2[nH]1 [CYCLOBENDAZOLE] | > 20 µM | > 20 µM |
| CN(C)CCC=C1c2ccccc2C=Cc2ccccc21 [CYCLOBENZAPRINE] | > 20 µM | > 20 µM |
| CC(=O)Oc1ccc(C(=C2CCCCC2)c2ccc(OC(C)=O)cc2)cc1 [CYCLOFENIL] | > 20 µM | > 20 µM |
| CC1(C)N=C(N)N=C(N)N1c1ccc(Cl)cc1 [CYCLOGUANIL] | > 20 µM | > 20 µM |
| NC1CCCCC1 [CYCLOHEXYLAMINE] | > 20 µM | > 20 µM |

| Structure (SMILES) | IC50 | IC50 (read-out: pIC50 (converted)) |
| --- | --- | --- |
| NC1(C(=O)O)CCCC1 [CYCLOLEUCINE] | > 20 µM | > 20 µM |
| CNC(C)CC1CCCC1 (stereo unspecified) [CYCLOPENTAMINE] | > 20 µM | > 20 µM |
| NS(=O)(=O)c1cc2c(cc1Cl)NC(CC1CCCC1)NS2(=O)=O (stereo unspecified) [CYCLOPENTHIAZIDE] | > 20 µM | > 20 µM |
| CN(C)CCOC(=O)C(c1ccccc1)C1(O)CCCC1 (stereo unspecified) [CYCLOPENTOLATE] | > 20 µM | > 20 µM |
| FC(F)(F)c1ccc2c(c1)N(CCCN1CCN(C3CC3)CC1)c1ccccc1S2 [CYCLOPHENAZINE] | > 20 µM | > 20 µM |
| O=P1(N(CCCl)CCCl)NCCCO1 (stereo unspecified) [CYCLOPHOSPHAMIDE ANHYDROUS] | > 20 µM | > 20 µM |
| N[C@@H]1CONC1=O [CYCLOSERINE] | > 20 µM | > 20 µM |
| NS(=O)(=O)c1cc2c(cc1Cl)NC(C1CC3C=CC1C3)NS2(=O)=O (stereo unspecified) [CYCLOTHIAZIDE] | > 20 µM | > 20 µM |
| COc1cc(/C=C2\CCC/C(=C\c3ccc(O)c(OC)c3)C2=O)ccc1O [CYCLOVALONE] | > 20 µM | > 20 µM |
| OC(CCN1CCCCC1)(c1ccccc1)C1CCCC1 (stereo unspecified) [CYCRIMINE] | > 20 µM | > 20 µM |
| [O-][N+]1=C(c2ccccc2)c2cc(Cl)ccc2N=C(NCC2CC2)C1 [CYPRAZEPAM] | > 20 µM | > 20 µM |
| CN1CCC(=C2c3ccccc3C=Cc3ccccc32)CC1 [CYPROHEPTADINE] | > 20 µM | > 20 µM |
| CC(=O)O[C@]1(C(C)=O)CC[C@H]2[C@@H]3C=C(Cl)C4=CC(=O)[C@@H]5C[C@@H]5[C@]4(C)[C@H]3CC[C@@]21C [CYPROTERONE ACETATE] | > 20 µM | > 20 µM |
| CC(=O)[C@@]1(O)CC[C@H]2[C@@H]3C=C(Cl)C4=CC(=O)[C@@H]5C[C@@H]5[C@]4(C)[C@H]3CC[C@@]21C [CYPROTERONE] | > 20 µM | > 20 µM |
| Nc1nc(N)nc(NC2CC2)n1 [CYROMAZINE] | > 20 µM | > 20 µM |
| NCCS [CYSTEAMINE] | > 10 µM | > 10 µM |
| N[C@@H](CS)C(=O)O [CYSTEINE] | > 20 µM | > 20 µM |
| O=c1cccc2n1C[C@@H]1CNC[C@H]2C1 [CYTISINICLINE] | > 20 µM | > 20 µM |
| N[C@H](Cc1c[nH]cn1)C(=O)O [D-HISTIDINE] | > 20 µM | > 20 µM |
